US20060281763A1, “Carboxamide inhibitors of TGFbeta” (priority 2005, published 2006)

The molecules below were run against T1, TGFβ R1 (Homo sapiens, UniProt P36897) (assay: TGFβ R1 autophosphorylation protocol (33P-ATP, phosphocellulose filter plate)). Settings: 10 uM ATP, 170 nM TGFβ R1, 20 minutes at room temperature, read-out: IC50 for Kinase Inhibition.
T1 sequence (P36897 34-503): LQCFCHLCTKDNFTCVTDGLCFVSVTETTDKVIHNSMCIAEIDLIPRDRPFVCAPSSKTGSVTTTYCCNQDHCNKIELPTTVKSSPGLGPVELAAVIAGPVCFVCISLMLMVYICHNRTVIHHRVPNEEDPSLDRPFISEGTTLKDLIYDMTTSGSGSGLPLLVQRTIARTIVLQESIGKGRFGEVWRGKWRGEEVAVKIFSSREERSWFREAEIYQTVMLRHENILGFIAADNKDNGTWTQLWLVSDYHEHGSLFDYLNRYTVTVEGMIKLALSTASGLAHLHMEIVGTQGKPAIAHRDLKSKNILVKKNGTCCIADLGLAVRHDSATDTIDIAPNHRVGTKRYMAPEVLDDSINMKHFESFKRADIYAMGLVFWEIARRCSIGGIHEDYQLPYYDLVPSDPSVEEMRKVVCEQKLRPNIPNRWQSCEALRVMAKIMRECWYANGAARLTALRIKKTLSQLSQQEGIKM
Assay type: biochemical
Protocol: The compounds of the invention were tested for their ability to inhibit TGFβ by a TGFβ R^1 autophosphorylation protocol. This was conducted as follows: Compound dilutions and reagents were prepared fresh daily. Compounds were diluted from DMSO stock solutions to 2 times the desired assay concentration, keeping final DMSO concentration in the assay less than or equal to 1%. TGFβ R1 was diluted to 4 times the desired assay concentration in buffer+DTT. ATP was diluted into 4× reaction buffer, and gamma-^33P-ATP was added at 60 uCi/mL.
The assay was performed by adding 10 ul of the enzyme to 20 ul of the compound solution. The reaction was initiated by the addition of 10 ul of ATP mix. Final assay conditions included 10 uM ATP, 170 nM TGFβ R1, and […] in 20 mM MOPS, pH7. The reactions were incubated at room temperature for 20 minutes. The reactions were stopped by transferring 23 ul of reaction mixture onto a phosphocellulose 96-well filter plate, which had been pre-wetted with 15 ul of 0.25M H3PO4 per well. After 5 minutes, the wells were washed 4× with 75 mM H3PO4 and once with 95% ethanol. The plate was dried, scintillation cocktail was added to each well, and the wells were counted in a Packard TopCount microplate scintillation counter.

`COc1cnc(-c2cc(Cl)ccc2F)nc1Nc1ccncc1C(=O)NC1CNC1` [Compound 87, N-Azetidin-3-yl-4-[2-(5-chloro-2-fluoro-phenyl)-5-methoxy-pyrimidin-4-ylamino]-nicotinamide] and `COc1cnc(-c2cc(Cl)ccc2F)nc1Nc1ccncc1C(=O)NCCN` [Compound 39, N-(2-Amino-ethyl)-4-[2-(5-chloro-2-fluoro-phenyl)-5-methoxy-pyrimidin-4-ylamino]-nicotinamide] are the same in IC50: 50 nM for the first, 50 nM for the second.

Going from `COc1cnc(-c2cc(Cl)ccc2F)nc1Nc1ccncc1C(=O)NCCCNC(=O)Nc1ccccc1` [Compound 65, 4-[2-(5-Chloro-2-fluoro-phenyl)-5-methoxy-pyrimidin-4-ylamino]-N-[3-(3-phenyl-ureido)-propyl]-nicotinamide] to `CCNC(=O)NCCNC(=O)c1cnccc1Nc1nc(-c2cc(Cl)ccc2F)ncc1OC` [Compound 69, 4-[2-(5-Chloro-2-fluoro-phenyl)-5-methoxy-pyrimidin-4-ylamino]-N-[2-(3-ethyl-ureido)-ethyl]-nicotinamide], the IC50 falls from 590 nM to 150 nM (3.9-fold).

First: COc1cnc(-c2cc(Cl)ccc2F)nc1Nc1ccncc1C(=O)NCC1CCCC[C@H]1O (stereo in doubt) [Compound 31, 4-[2-(5-Chloro-2-fluoro-phenyl)-5-methoxy-pyrimidin-4-ylamino]-N-(2-hydroxy-cyclohexylmethyl)-nicotinamide]
Second: COc1cnc(-c2cc(Cl)ccc2F)nc1Nc1ccncc1C(=O)NCCC(N)=O [Compound 70, N-(2-Carbamoyl-ethyl)-4-[2-(5-choro-2-fluoro-phenyl)-5-methoxy-pyrimidin-4-ylamino]-nicotinamide]
The IC50 of the first is 1.9-fold higher: 370 nM for the first, 200 nM for the second.

Compared with `CN(C)c1cnc(-c2cc(Cl)ccc2F)nc1Nc1ccncc1C(=O)NCCNCCO` [Compound 50], `COc1cnc(-c2cc(Cl)ccc2F)nc1Nc1ccncc1C(=O)NCCCN` [Compound 100, N-(3-Amino-propyl)-4-[2-(5-chloro-2-fluoro-phenyl)-5-methoxy-pyrimidin-4-ylamino]-nicotinamide] is 1.5-fold higher in IC50: 20 nM for the first, 30 nM for the second. The first is the more potent here.

First: COc1cnc(-c2cc(Cl)ccc2F)nc1Nc1ccncc1C(=O)NCCCN1CCCC1=O [Compound 11, 4-{2-(5-Chloro-2-fluoro-phenyl)-5-methoxy-pyrimidin-4-ylamino]-N-[3-(2-oxo-pyrrolidin-1-yl)-propyl]-nicotinamide]
Second: COc1cnc(-c2cc(Cl)ccc2F)nc1Nc1ccncc1C(=O)NCCCN1CC[C@@H](F)C1 [Compound 155, 4-[2-(5-Chloro-2-fluoro-phenyl)-5-methoxy-pyrimidin-4-ylamino]-N-[3-(3-fluoro-pyrrolidin-1-yl)-propyl]-nicotinamide]
The IC50 of the first is 15-fold higher: 120 nM for the first, 8 nM for the second.

First: COc1cnc(-c2cc(Cl)ccc2F)nc1Nc1ccncc1C(=O)NCCn1cccc1 [Compound 57, 4-[2-(5-Chloro-2-fluoro-phenyl)-5-methoxy-pyrimidin-4-ylamino]-N-(2-pyrrol-1-yl-ethyl)-nicotinamide]
Second: COc1cnc(-c2cc(Cl)ccc2F)nc1Nc1ccncc1C(=O)NCC(F)(F)F [Compound 37, 4-[2-(5-Chloro-2-fluoro-phenyl)-5-methoxy-pyrimidin-4-ylamino]-N-(2,2,2-trifluoro-ethyl)-nicotinamide]
The IC50 of the first is 2.3-fold lower: 70 nM for the first, 160 nM for the second. The first is the more potent here.

Compared with `COc1cnc(-c2cc(Cl)ccc2F)nc1Nc1ccncc1C(=O)NCCCN/C(=N/C#N)N1CCC1` [Compound 44], `COc1cnc(-c2cc(Cl)ccc2F)nc1Nc1ccncc1C(=O)NCC(O)CN1CCOCC1` (stereo not drawn) [Compound 73, 4-[2-(5-Chloro-2-fluoro-phenyl)-5-methoxy-pyrimidin-4-ylamino]-N-(2-hydroxy-3-morpholin-4-yl-propyl)-nicotinamide] is 2.8-fold higher in IC50: 130 nM for the first, 360 nM for the second.

First: COc1cnc(-c2cc(Cl)ccc2F)nc1Nc1ccncc1C(=O)N[C@@H]1CCOC1=O [Compound 62, 4-[2-(5-Chloro-2-fluoro-phenyl)-5-methoxy-pyrimidin-4-ylamino]-N-(2-oxo-tetrahydro-furan-3-yl)-nicotinamide]
Second: COc1cnc(-c2cc(Cl)ccc2F)nc1Nc1ccncc1C(=O)NCC1CN(C(=O)OC(C)(C)C)C1 [Compound 105]
The IC50 of the first is 1.5-fold higher: 360 nM for the first, 240 nM for the second. The second is the more potent here.

Compared with `COc1cnc(-c2cc(Cl)ccc2F)nc1Nc1ccncc1C(=O)NCCCNCCC1O[C@H](CO)[C@@H](O)[C@H](O)[C@@H]1O` (stereo partly drawn) [Compound 154, 4-[2-(5-Chloro-2-fluoro-phenyl)-5-methoxy-pyrimidin-4-ylamino]-N-{3-[2-(3,4,5-trihydroxy-6-hydroxymethyl-tetrahydro-pyran-2-yl)-ethylamino]-propyl}-nicotinamide], `COC[C@H]1OC(CCNCCCNC(=O)c2cnccc2Nc2nc(-c3cc(Cl)ccc3F)ncc2OC)[C@@H](OC)[C@@H](OC)[C@@H]1OC` (stereo partly drawn) [Compound 96, 4-[2-(5-Chloro-2-fluoro-phenyl)-5-methoxy-pyrimidin-4-ylamino]-N-(3-[2-(3,4,5-trimethoxy-6-methoxymethyl-tetrahydro-pyran-2-yl)-ethylamino]-propyl)-nicotinamide] is 7-fold higher in IC50: 10 nM for the first, 70 nM for the second. The first is the more potent here.

Work on `NC(=O)c1cnccc1Nc1nc(-c2cc(Cl)ccc2F)ncc1Cl` [Compound 91, 4-[5-Chloro-2-(5-chloro-2-fluoro-phenyl)-pyrimidin-4-ylamino]-nicotinamide] yielded an IC50 of 200 nM.

Same assay, conditions: 10 uM ATP, 170 nM TGFβ R1, room temperature 20 minutes, read-out: IC50 for Kinase Inhibition

First: CC(C)c1cnc(-c2cc(Cl)ccc2F)nc1Nc1ccncc1C(=O)NC[C@H](C)OC(=O)[C@@H](N)C(C)C [Compound 206, 2-Amino-3-methyl-butyric acid 2-({4-[2-(5-chloro-2-fluoro-phenyl)-5-isopropyl-pyrimidin-4-ylamino]-pyridine-3-carbonyl}-amino)-1-methyl-ethyl ester]
Second: CC(C)c1cnc(-c2cc(Cl)ccc2F)nc1Nc1ccncc1C(=O)NC[C@H](C)OC(=O)[C@H](N)C(C)C [Compound 207, 2-Amino-3-methyl-butyric acid 2-({4-[2-(5-chloro-2-fluoro-phenyl)-5-isopropyl-pyrimidin-4-ylamino]-pyridine-3-carbonyl}-amino)-1-methyl-ethyl-ester]
The IC50 of the first is 4.2-fold higher: 72 nM for the first, 17 nM for the second. The second is the more potent here.

First: CC(C)c1cnc(-c2cc(Cl)ccc2F)nc1Nc1ccncc1C(=O)NCCCN1CCCC[C@H]1C(=O)N1CCCC1 [Compound 183, 4-[2-(5-Chloro-2-fluoro-phenyl)-5-isopropyl-pyrimidin-4-ylamino]-N-{3-[2-(pyrrolidine-1-carbonyl)-piperidin-1-yl]-propyl}-nicotinamide]
Second: CC(C)c1cnc(-c2cc(Cl)ccc2F)nc1Nc1ccncc1C(=O)N1CC[C@H](N)C1 [Compound 209, (3-Amino-pyrrolidin-1-yl)-{4-[2-(5-chloro-2-fluoro-phenyl)-5-isopropyl-pyrimidin-4-ylamino]-pyridin-3-yl}-methanone]
The IC50 of the first is 3.2-fold lower: 21 nM for the first, 68 nM for the second.

Compared with `COc1cnc(-c2cc(Cl)ccc2F)nc1Nc1ccncc1C(=O)N1CC[C@H](N)C1` [Compound 211, (3-Amino-pyrrolidin-1-yl)-{4-[2-(5-chloro-2-fluoro-phenyl)-5-methoxy-pyrimidin-4-ylamino]-pyridin-3-yl)-methanone], `COc1cnc(-c2cc(Cl)ccc2F)nc1Nc1ccncc1C(=O)N1CC[C@@H](F)C1` [Compound 241, {4-[2-(5-Chloro-2-fluoro-phenyl)-5-methoxy-pyrimidin-4-ylamino]-pyridin-3-yl}-(3-fluoro-pyrrolidin-1-yl)-methanone] is 2-fold lower in IC50: 258 nM for the first, 127 nM for the second.

Going from `O=C(c1cnccc1Nc1nc(-c2cc(Cl)ccc2F)ncc1C1CCCC1)N1CC[C@H](O)C1` [Compound 212, {4-[2-(5-chloro-2-fluoro-phenyl)-5-cyclopentyl-pyrimidin-4-ylamino]-pyridin-3-yl}(3-hydroxy-pyrrolidin-1-yl)-methanone] to `COc1cnc(-c2cc(Cl)ccc2F)nc1Nc1ccncc1C(=O)N1CC[C@H](F)C1` [Compound 220, {4-[2-(5-Chloro-2-fluoro-phenyl)-5-methoxy-pyrimidin-4-ylamino]-pyridin-3-yl}-(3-fluoro-pyrrolidin-1-yl)-methanone], the IC50 falls from 673 nM to 249 nM (2.7-fold). The second is the more potent here.

Going from `CCOP(=O)(OCC)O[C@@H](C)CNC(=O)c1cnccc1Nc1nc(-c2cc(Cl)ccc2F)ncc1C(C)C` [Compound 233, Phosphoric acid 2-{(4-[2-(5-chloro-2-fluoro-phenyl)-5-isopropyl-pyrimidin-4-ylamino]-pyridine-3-carbonyl}-amino)-1-methyl-ethyl ester diethyl ester] to `COc1cnc(-c2cc(Cl)ccc2F)nc1Nc1ccncc1C(=O)NCC(C)=O` [Compound 168, 4-[2-(5-Chloro-2-fluoro-phenyl)-5-methoxy-pyrimidin-4-ylamino]-N-(2-oxo-propyl)-nicotinamide], the IC50 falls from 280 nM to 24 nM (12-fold). The second is the more potent here.

In the case of `CC(C)(O)CNC(=O)c1cnccc1Nc1nc(-c2cc(Cl)ccc2F)ncc1C1CC1` [Compound 165], the IC50 is reported as 27 nM.
